# In patent publication US7875647B2, “Heteroaryl-pyrazole derivatives as cannabinoid CB1 receptor antagonists” (Green Cross Corporation, priority 2006, dated 2011):
# Target: T1, Cannabinoid-1 receptor (CB1R) (Rattus norvegicus, UniProt P20272)
# T1 construct: The tissue obtained from the brain of SD rats was homogenized; from tissue; host or cells: brain of SD rats (membrane pellet of the homogenate)
# Test: Cannabinoid-1 receptor (CB1R) binding affinity assay ([3H]CP-55940, rat CB-1 receptor binding protocol)
# Settings: IC50(nM), brain tissue of SD rats, [3H]CP-55940, 30° C. 60 min
# Method: The tissue obtained from the brain of SD rats was homogenized with a Dounce homogenate system in TME (50 mM Tris, 3 mM MgCl2 and 1 mM EDTA, pH 7.4) at 4° C., and the homogenate was centrifuged at 48,000 g for 30 min. at 4° C. The pellet was resuspended in 5 ml of TME and the suspension was divided into aliquots and stored at −70° C. until its use in the following assay.
# The tissue concentrations were determined by Bradford protein analysis, and 148 μl of brain tissue of the required concentration was added to the plate. The plate was covered and placed in a 30° C. incubator for 60 min, and then transformed on GF/B filtermat pretreated in polyethylenimine (PEI) using a cell harvester. Each filter was washed five times and dried at 60° C. for 1 hr. Then, the degree of radioactivity retained by the filter was measured using Wallac Microbeta™ (PerkinElmer Life Sciences, Inc., Massachusetts, U.S.A.) and the activity of the compound for inhibiting CB1 receptor was determined therefrom.
# T1 sequence (P20272 whole entry): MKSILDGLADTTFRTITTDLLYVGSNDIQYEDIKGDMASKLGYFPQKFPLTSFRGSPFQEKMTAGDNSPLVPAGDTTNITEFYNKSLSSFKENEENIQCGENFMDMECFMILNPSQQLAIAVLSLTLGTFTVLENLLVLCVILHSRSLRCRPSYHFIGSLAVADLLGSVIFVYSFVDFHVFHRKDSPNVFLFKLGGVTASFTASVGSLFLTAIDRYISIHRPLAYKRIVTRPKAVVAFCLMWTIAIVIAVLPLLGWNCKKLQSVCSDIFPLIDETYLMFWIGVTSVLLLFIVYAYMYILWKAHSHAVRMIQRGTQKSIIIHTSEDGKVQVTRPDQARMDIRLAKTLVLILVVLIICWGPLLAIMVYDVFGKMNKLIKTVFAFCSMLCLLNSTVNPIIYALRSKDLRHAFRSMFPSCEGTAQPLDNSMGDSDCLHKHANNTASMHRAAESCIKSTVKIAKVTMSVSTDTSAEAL
row,Compound,IC50 [nM]
1,"Cc1c(-c2nnc(C(C)(C)OCc3cccc(Cl)c3)o2)nn(-c2ccc(Cl)cc2Cl)c1-c1ccc(Cl)cc1 [Example 249, 2-(2-(3-Chlorobenzyloxy)propan-2-yl)-5-(5-(4-chlorophenyl)-1-(2,4-dichlorophenyl)-4-methyl-1H-pyrazol-3-yl)-1,3,4-oxadiazole]",11.1

# Same assay, conditions: brain tissue of SD rats, [3H]CP-55940, 30° C. 60 min; read-out: IC50
row,IC50 [nM],Compound
1,13.9,"Cc1c(-c2nnc(C3(c4ccc(Cl)cc4)CC3)s2)nn(-c2ccc(Cl)cc2Cl)c1-c1ccc(Cl)cc1 [Example 430, 2-(5-(4-chlorophenyl)-1-(2,4-dichlorophenyl)-4-methyl-1H-pyrazol-3-yl)-5-(1-(4-chlorophenyl)cyclopropyl)-1,3,4-thiadiazole]"
2,5.71,"CCc1c(-c2nnc(C3(c4ccc(OC)cc4)CC3)o2)nn(-c2ccc(Cl)cc2Cl)c1-c1ccc(Br)cc1 [Example 175, 2-(5-(4-bromophenyl)-1-(2,4-dichlorophenyl)-4-ethyl-1H-pyrazol-3-yl)-5-(1-(4-methoxyphenyl)cyclopropyl)-1,3,4-oxadiazole]"
3,45.7,"CC(C)(C)c1nnc(-c2nn(-c3ccc(Cl)cc3Cl)c(-c3ccc(Cl)cc3)c2CN2CCCCC2)o1 [Example 291, 2-tert-butyl-5-(5-(4-chlorophenyl)-1-(2,4-dichlorophenyl)-4-(piperidin-1-ylmethyl)-1H-pyrazol-3-yl)-1,3,4-oxadiazole]"
4,4.61,"CC(C)(C)c1nnc(-c2nn(-c3ccc(Cl)cc3Cl)c(-c3ccc(Br)cc3)c2CO)s1 [Example 522, (5-(4-bromophenyl)-3-(5-tert-butyl-1,3,4-thiadiazol-2-yl)-1-(2,4-dichlorophenyl)-1H-pyrazol-4-yl)methanol]"
5,160,"Cc1c(-c2nnc(C(C)(C)C)s2)nn(-c2ccc(Cl)cc2Cl)c1-c1ccccc1 [Example 421, 2-tert-butyl-5-(1-(2,4-dichlorophenyl)-4-methyl-5-phenyl-1H-pyrazol-3-yl)-1,3,4-thiadiazole]"
6,49.4,"CC(=O)c1c(-c2nnc(C(C)(C)C)o2)nn(-c2ccc(Cl)cc2Cl)c1-c1ccc(Cl)cc1 [Example 213, 1-(3-(5-tert-butyl-1,3,4-oxadiazol-2-yl)-5-(4-chlorophenyl)-1-(2,4-dichlorophenyl)-1H-pyrazol-4-yl)ethanone]"
7,368,"Cc1c(-c2nc(C3CCCC3)n(C)n2)nn(-c2ccc(Cl)cc2Cl)c1-c1ccc(Cl)cc1 [Example 623, 3-(5-(4-chlorophenyl)-1-(2,4-dichlorophenyl)-4-methyl-1H-pyrazol-3-yl)-5-cyclopentyl-1-methyl-1H-1,2,4-triazole]"
8,18,"Clc1ccc(-c2c(C3CC3)c(-c3nnc(C4CCC4)s3)nn2-c2ccc(Cl)cc2Cl)cc1 [Example 442, 2-(5-(4-chlorophenyl)-4-cyclopropyl-1-(2,4-dichlorophenyl)-1H-pyrazol-3-yl)-5-cyclobutyl-1,3,4-thiadiazole]"
9,15,"CCCc1c(-c2nnc(C3(C(F)(F)F)CC3)o2)nn(-c2ccc(Cl)cc2Cl)c1-c1ccc(Cl)cc1 [Example 191, 2-(5-(4-chlorophenyl)-1-(2,4-dichlorophenyl)-4-propyl-1H-pyrazol-3-yl)-5-(1-(trifluoromethyl)cyclopropyl)-1,3,4-oxadiazole]"
10,4.66,"Clc1ccc(-c2c(Cn3cncn3)c(-c3nnc(C4(c5ccc(Cl)cc5)CCCC4)o3)nn2-c2ccc(Cl)cc2Cl)cc1 [Example 324, 2-(4-((1H-1,2,4-triazol-1-yl)methyl)-5-(4-chlorophenyl)-1-(2,4-dichlorophenyl)-1H-pyrazol-3-yl)-5-(1-(4-chlorophenyl)cyclopentyl)-1,3,4-oxadiazole]"
11,4.08,"CCc1c(-c2nnc(C3(c4ccccc4F)CC3)o2)nn(-c2ccc(Cl)cc2Cl)c1-c1ccc(Cl)cc1 [Example 282, 2-(5-(4-chlorophenyl)-1-(2,4-dichlorophenyl)-4-ethyl-1H-pyrazol-3-yl)-5-(1-(2-fluorophenyl)cyclopropyl)-1,3,4-oxadiazole]"
12,5.34,"Cc1c(-c2nnc(C(C)(C)c3ccc(Cl)cc3)s2)nn(-c2ccc(Cl)cc2Cl)c1-c1ccc(Cl)cc1 [Example 402, 2-(5-(4-chlorophenyl)-1-(2,4-dichlorophenyl)-4-methyl-1H-pyrazol-3-yl)-5-(2-(4-chlorophenyl)propan-2-yl)-1,3,4-thiadiazole]"
13,60.3,"Cc1c(-c2nnc(NC3CCCCC3)s2)nn(-c2ccc(Cl)cc2Cl)c1-c1ccc(Cl)cc1 [Example 382, 5-(5-(4-chlorophenyl)-1-(2,4-dichlorophenyl)-4-methyl-1H-pyrazol-3-yl)-N-cyclohexyl-1,3,4-thiadiazol-2-amine]"
14,95.3,"Cc1c(-c2nnc(C3(C#N)CC3)o2)nn(-c2ccc(Cl)cc2Cl)c1-c1ccc(Cl)cc1 [Example 267, 1-(5-(5-(4-chlorophenyl)-1-(2,4-dichlorophenyl)-4-methyl-1H-pyrazol-3-yl)-1,3,4-oxadiazol-2-yl)cyclopropanecarbonitrile]"
15,11.1,"CCc1c(-c2nnc(C(C)(C)C)s2)nn(-c2ccc(Cl)cc2Cl)c1-c1ccc(Cl)cc1 [Example 389, 2-tert-butyl-5-(5-(4-chlorophenyl)-1-(2,4-dichlorophenyl)-4-ethyl-1H-pyrazol-3-yl)-1,3,4-thiadiazole]"
16,166,"Cc1c(-c2nnnn2C(C)C)nn(-c2ccc(Cl)cc2Cl)c1-c1ccc(Cl)cc1 [Example 575, 5-(5-(4-Chlorophenyl)-1-(2,4-dichlorophenyl)-4-methyl-1H-pyrazol-3-yl)-1-isopropyl-1H-tetrazole]"
17,25.8,"CSCc1c(-c2nnc(C(C)(C)C)o2)nn(-c2ccc(Cl)cc2Cl)c1-c1ccc(SC)cc1 [Example 311, 2-tert-butyl-5-(1-(2,4-dichlorophenyl)-5-(4-(methylthio)phenyl)-4-(methylthiomethyl)-1H-pyrazol-3-yl)-1,3,4-oxadiazole]"
18,122,"Cc1c(-c2nnn(CCc3ccccc3)n2)nn(-c2ccc(Cl)cc2Cl)c1-c1ccc(Cl)cc1 [Example 592, 5-(5-(4-Chlorophenyl)-1-(2,4-dichlorophenyl)-4-methyl-1H-pyrazol-3-yl)-2-phenethyl-2H-tetrazole]"
19,52.6,"Cc1c(-c2nnc(C3(c4ccc(Cl)cc4)CC3)o2)nn(-c2c(Cl)cccc2Cl)c1-c1ccc(Cl)cc1 [Example 161, 2-(5-(4-chlorophenyl)-1-(2,6-dichlorophenyl)-4-methyl-1H-pyrazol-3-yl)-5-(1-(4-chlorophenyl)cyclopropyl)-1,3,4-oxadiazole]"
20,14.1,"CC(F)c1c(-c2nnc(C(C)(C)C)o2)nn(-c2ccc(Cl)cc2Cl)c1-c1ccc(Cl)cc1 (stereo not drawn) [Example 210, 2-tert-butyl-5-(5-(4-chlorophenyl)-1-(2,4-dichlorophenyl)-4-(1-fluoroethyl)-1H-pyrazol-3-yl)-1,3,4-oxadiazole]"
21,19.9,"Cc1c(-c2nnc(C3(c4ccccn4)CC3)o2)nn(-c2ccc(Cl)cc2Cl)c1-c1ccc(Cl)cc1 [Example 269, 2-(5-(4-chlorophenyl)-1-(2,4-dichlorophenyl)-4-methyl-1H-pyrazol-3-yl)-5-(1-(pyridin-2-yl)cyclopropyl)-1,3,4-oxadiazole]"
22,893,"Cc1c(-c2nnc(C3CCC3)s2)nn(-c2ccc(Cl)cc2Cl)c1-c1cccc(Cl)c1 [Example 436, 2-(5-(3-chlorophenyl)-1-(2,4-dichlorophenyl)-4-methyl-1H-pyrazol-3-yl)-5-cyclobutyl-1,3,4-thiadiazole]"
23,168,"Cc1c(-c2nnc(C3CCC3)s2)nn(-c2ccc(Cl)cc2Cl)c1-c1ccccc1 [Example 423, 2-cyclobutyl-5-(1-(2,4-dichlorophenyl)-4-methyl-5-phenyl-1H-pyrazol-3-yl)-1,3,4-thiadiazole]"
24,85.3,"Cc1c(-c2nnc(C3CC=CCC3)s2)nn(-c2ccc(Cl)cc2Cl)c1-c1ccc(Cl)cc1 (stereo not drawn) [Example 383, 2-(5-(4-chlorophenyl)-1-(2,4-dichlorophenyl)-4-methyl-1H-pyrazol-3-yl)-5-(cyclohex-3-enyl)-1,3,4-thiadiazole]"
25,2.29,"FC(F)(F)C1(c2nnc(-c3nn(-c4ccc(Cl)cc4Cl)c(-c4ccc(Cl)cc4)c3Cn3cncn3)s2)CC1 [Example 511, 2-(4-((1H-1,2,4-triazol-1-yl)methyl)-5-(4-chlorophenyl)-1-(2,4-dichlorophenyl)-1H-pyrazol-3-yl)-5-(1-(trifluoromethyl)cyclopropyl)-1,3,4-thiadiazole]"
26,7.63,"CCc1c(-c2nnc(C(C)CC)s2)nn(-c2ccc(Cl)cc2Cl)c1-c1ccc(Br)cc1 (stereo not drawn) [Example 399, 2-(5-(4-bromophenyl)-1-(2,4-dichlorophenyl)-4-ethyl-1H-pyrazol-3-yl)-5-sec-butyl-1,3,4-thiadiazole]"
27,75.8,"Cc1c(-c2nnn(C3CCCCC3)n2)nn(-c2ccc(Cl)cc2Cl)c1-c1ccc(Cl)cc1 [Example 580, 5-(5-(4-Chlorophenyl)-1-(2,4-dichlorophenyl)-4-methyl-1H-pyrazol-3-yl)-2-cyclohexyl-2H-tetrazole]"

row,Compound,IC50 [nM]
1,"Cc1c(-c2nnn(CC3CCCCC3)n2)nn(-c2ccc(Cl)cc2Cl)c1-c1ccc(Cl)cc1 [Example 590, 5-(5-(4-Chlorophenyl)-1-(2,4-dichlorophenyl)-4-methyl-1H-pyrazol-3-yl)-2-(cyclohexylmethyl)-2H-tetrazole]",85.3
2,"C=C(C)c1c(-c2nnc(C(C)(C)C)o2)nn(-c2ccc(Cl)cc2Cl)c1-c1ccc(Cl)cc1 [Example 219, 2-tert-butyl-5-(5-(4-chlorophenyl)-1-(2,4-dichlorophenyl)-4-(prop-1-en-2-yl)-1H-pyrazol-3-yl)-1,3,4-oxadiazole]",4.83
